Consider 26 molecules from patent US12202804B2, “In vitro or ex vivo methods for screening a quinoline derivative” (ABIVAX, priority 2014, dated 2025).

The test system of assay [1] is miR-124. Kind of assay: Modulation of miR-124 expression in PBMCs (qPCR, relative quantification). The format is cell-based, human. The following applies: for fold induction at 5 µM / fold induction at 10 µM: Homo sapiens, PBMC, 144 h, read-out: Fold-change compared to DMSO treated cells (Relative quantification) Mean; for fold induction at 5 µM / fold induction at 10 µM / Fold-change compared to DMSO treated cells (Relative quantification) Mean: miR-124 expression, PBMCs of healthy donors; for fold induction at 5 µM: quinoline derivatives 5 μM, extraction day 6, mean over 1 to 7 donors; for fold induction at 10 µM / Fold-change compared to DMSO treated cells (Relative quantification) Mean: antiretroviral drugs 10 μM, extraction day 6, 4 donors; for effect on the overexpression of miR-124 in PBMCs: known antiretrovirals, PBMCs from four donors. As to the method:
Briefly, 60-70 mL of buffy-coat are poured in a flask of 175 cm^2, and the volume is adjusted to 300 mL using PBS in order to obtain a dilution of about 5-fold of the buffy coat. […] The lymphocyte ring is recovered from the Falcon™ tube with a transfer pipette (Pastette®) and then washed with PBS using centrifugation for 10 minutes at 290 rcf and at ambient temperature until the supernatant becomes clear.
Cells are incubated for 48 hours at 37° C. under 5% CO2.
Six-well plates are used for the screening. Within each well comprising 3.10^6 cell/4 ml RPMI supplemented with 10% fetal calf serum and 40 U/mL IL-2 (Peprotech Ref 200-02) are added screened molecules. 100% DMSO (4 μL) is added to the well and tested as a negative control.
Each tested condition is set up as described here below and the final corresponding volume is adjusted accordingly in the well: • 1) Quinoline derivatives in 100% DMSO—(5 μM and final volume 4 μL) • 2) Antiretroviral drugs: Maraviroc, Efavirenz, Darunavir, AZT (10 μM for all—final volume 4 μL).
The wells are incubated for three days at 37° C. under 5% CO2 Medium is changed (Day 3) according to standard protocols. Briefly, plates are centrifugated at 290 rcf for 5 minutes and 3 mL of supernatant is removed. 3 mL of RPMI supplemented with 10% fetal calf serum and 40 U/mL IL-2 is then added with 3 μL of a stock solution of screened molecule at 5 mM in 100% DMSO or 3 μL of 100% DMSO as a negative control.
Cells are recovered within Falcon™ tubes of 15 mL, centrifugated at 290 rcf for 5 minutes, and then washed in 10 mL PBS and further centrifugated at 290 rcf for 5 minutes. Cells are then resuspended in 1 mL PBS and counted.
6×10^6 cells are recovered and centrifugated at 290 rcf for 5 minutes.
The miRNA extraction is achieved using the protocol from Macherey Nagel Nucleospin® miRNA extraction kit using an elution volume for RNAs of 50 μL and miRNAs of 30 μL, and further stored at −20° C.
The reverse transcription step is followed for 12 μL of miRNA using the miScript RT II reverse transcription (RT) kit from QIAGEN© using the miScript HiSpec buffer, and further stored at −20° C.
The quantitative PCR step is achieved using the QIAGEN© miScript SYBR® Green PCR kit and miScript Primer Assays according to the manufacturer's protocol.
The reaction is repeated in triplicates in a 384-well plate according to the manufacturer's protocol on a LightCycler® […] Roche Real-Time PCR system. Cycling conditions are also set up according to the manufacturer's protocol: […]
On the technique in general: In qPCR the cycle at which signal appears reflects the starting amount.

Assay [2] has as its system (DSS-) induced colitis model. Nature of the assay: Dextran Sulphate Sodium (DSS-) induced colitis mouse model. The format is in vivo, C57BL/6 mice. On the procedure:
A commonly used mouse model of inflammatory bowel disease is the Dextran Sulphate Sodium (DSS-) induced colitis model. Typical histological changes of acute DSS-colitis are mucin depletion, epithelial degeneration and the eventual destruction of the mucosal barrier which leads to inflammation and colitis.
Three groups of 6-week-old C57BL/6 mice (8 mice each) received DSS administration in the drinking water (2.5%) for 9 days (FIGS. 1-2). Weight loss and water consumption was measured every day. The latter was determined by measuring the volume loss of the drinking water in the respective devices. The mice were treated by gavage with 200 ul of 0.5 MC alone (DSS+MC group) or together with 40 mg/kg of compound 24 (DSS+MC+24 group). At the point when control mice have loosed up to 20% of their weight (DSS), the treatment with DSS is stopped and replaced with drinking water. The other treatments were continued for 21 days.
Three groups of 16-week-old C57BL/6 mice (7 mice each) received 2.5% DSS in drinking water (FIG. 3). The mice were treated by gavage with 200 ul of 0.5 MC alone (DSS+MC group) or together with 40 mg/kg of compound 24 (DSS+MC+24 group). The mice were treated with DSS for 6 days and at the point when control mice have loosed up to 15% of their weight (DSS), all the mice were euthanized and colon were taken for further analyses.
Colons were measured using a ruler and for histological analysis the entire colon was prepared according to the Swiss roll procedure (Whittem el al.; “Murine Colitis Modeling using Dextran Sulfate Sodium (DSS)”, J Vis Exp 2010 (35) 1652) fixed with formaldehyde and embedded in paraffin. 4 μm sections were de-paraffinized and stained with hematoxylin and eosin and analyzed for lesion size and other alterations (FIGS. 4-6). We compared untreated and treated mice during the DSS-cycle with quinoline derivatives suspended in methylcellulose or methylcellulose (MC) only. Statistical analysis was performed using Mann-Whitney test, asterisk indicates a significant difference ([…]), two asterisks indicate a very significant difference ([…])

For assay [3], the system named is Collagen induced arthritis model. Nature of the assay: Collagen induced arthritis mouse model. The format is in vivo, DBA/1 mice. On the procedure: Groups of 9 to -10-week-old DBA/1 mice were immunized intradermally with bovine collagen type II emulsified in a 1:1 proportion with complete Freund's adjuvant. Mice were challenged 21 days after the first immunization and the phenotypic appearance of arthritis was evaluated by monitoring every second day the thickness of each hind paw ankle joint thickness was measured using a dial caliper (0- to 10-mm) test gauge using a thickness gage. Mice were treated daily for two weeks with quinoline derivatives candidates suspended in methylcellulose or methylcellulose (MC) only and the development of the disease was then monitored. Statistical analysis was performed using Mann-Whitney test, asterisk indicates a significant difference ([…]).

Some results are limits rather than exact numbers.

`FC(F)(F)Oc1ccc(Nc2ccc3cccc(Cl)c3n2)cc1` [Compound 24, 8-chloro-N-[4-(trifluoromethoxy)phenyl]quinolin-2-amine]: the fold induction at 5 µM in assay [1] worked out at 32.5. Also, the “weight loss in average” value in assay [2] (after 5 days of DSS-administration, 40 mg/kg by gavage in MC, MC or untreated mice 10% to 20%) is on record as under 1%. The “alterations in lymphoid organs such as Peyer's Patches” value in assay [2] (after two DSS-cycles) is recorded as “decrease of alterations in lymphoid organs such as Peyer's Patches”. The “average size of the lesion area” value in assay [2] (colon histology (FIG. 5), versus 8.4 in MC only treated mice) is on record as 2.1 mm^2; in assay [2] (mice exposed to two DSS-cycles, vs 12.2 in MC only treated mice), 3.8 mm^2. Further, in assay [2] (colon histology, compared between cohorts (FIG. 4)), the number of lesions entry is on record as “comparable number of lesions”. Besides, the water consumption entry in assay [2] (drug treated mice, DSS model, 40 mg/kg by gavage) is reported as “higher water consumption”. For the same molecule, the “weight loss during the second administration of DSS” value in assay [2] (second cycle of DSS, 40 mg/kg by gavage) is “significantly control weight loss”. In addition, the swelling of joints in assay [3] (hind paw ankle joint thickness, MC only treated about 2.2 mm (FIG. 6)) is 1.9 mm. Besides, the “mice that displayed signs of inflammation” value in assay [3] (treated daily for two weeks, 8 out of 10 MC treated mice developed disease) was “one out of ten”. Turning to `O=C1Nc2ccc(Cl)cc2[C@@](C#CC2CC2)(C(F)(F)F)O1` [Effavirenz, Efavirenz, reference compound], in assay [1], the fold induction at 10 µM came out at 0.46 and the “effect on the overexpression of miR-124 in PBMCs” value (“effect on the overexpression” below) is listed as “none of the known antiretroviral (Maraviroc, Effavirenz, Darunavir or AZT) has any significant effect”. On to `Nc1cc(OC(F)(F)F)ccc1Nc1ccc2cccc(Cl)c2n1` [Compound 25], for which, in assay [1], the fold induction at 5 µM was 14.3. For the molecule `FC(F)(F)Oc1ccc(N(CCCN2CCCCC2)c2ccc3cccc(Cl)c3n2)cc1` [Compound 30, 8-chloro-N-(3-(piperidin-1-yl)propyl)-N-(4-(trifluoromethoxy)phenyl)quinolin-2-amine], in assay [1], the fold induction at 5 µM came out at 9.88. Still for that read-out and setting: in the case of `FC(F)(F)c1ccnc(Nc2ccc3cccc(Cl)c3n2)c1` [Compound 12] it was 16.3. On to Maraviroc [reference compound], for which, in assay [1], the “effect on the overexpression” value is reported as “none of the known antiretroviral (Maraviroc, Effavirenz, Darunavir or AZT) has any significant effect” and the “Fold-change compared to DMSO treated cells (Relative quantification) Mean” value is given as 0.73.

Regarding `FC(F)(F)c1ccnc(Nc2ccc3c(OCCN4CCOCC4)ccc(Cl)c3n2)c1` [Compound 5], the fold induction at 5 µM in assay [1] worked out at 26.8.

Turning to `Cc1ccnc(Nc2ccc3cccc(Cl)c3n2)c1N` [Compound 4], the fold induction at 5 µM in assay [1] is 24.4. Same read-out and setting: for `FC(F)(F)c1ccc(Nc2ccc3cccc(Cl)c3n2)nc1` [Compound 2] the value was 66.7; for `COc1ccc(Nc2ccc3cccc(Cl)c3n2)cc1` [Compound 23], 45.1; for `FC(F)(F)c1ccnc(Nc2ccc3c(OCCN4CCCCC4)ccc(Cl)c3n2)c1` [Compound 6], 30.9. Still for that read-out and setting: in the case of `FC(F)(F)c1ccnc(Nc2cc(NCCCN3CCCCC3)c3cccc(Cl)c3n2)c1` [Compound 9, 8-chloro-N^4-(3-(piperidin-1-yl)propyl)-N^2-(4-(trifluoromethyl)pyridin-2-yl)quinoline-2,4-diamine] it was 112.

In the case of `Clc1cccc2ccc(Nc3cnccn3)nc12` [Compound 45], the fold induction at 5 µM in assay [1] amounted to 34.2. On the same count and under the same terms, for `Nc1ccc(Cl)c2nc(Nc3cc(C(F)(F)F)ccn3)ccc12` [Compound 7] the value was 7.54. Still for that read-out and setting: in the case of `Cc1ccnc(Nc2ccc3cccc(Cl)c3n2)c1` [Compound 1] it was 32. Take `CC(C)CN(C[C@@H](O)[C@H](Cc1ccccc1)NC(=O)O[C@H]1CO[C@H]2OCC[C@H]21)S(=O)(=O)c1ccc(N)cc1` [Darunavir, reference compound]: in assay [1], the fold induction at 10 µM was determined as 1.08 and the “effect on the overexpression” value is “none of the known antiretroviral (Maraviroc, Effavirenz, Darunavir or AZT) has any significant effect”. In the case of `FC(F)(F)c1ccnc(Nc2ccc3c(OCCCN4CCCCC4)ccc(Cl)c3n2)c1` [Compound 8, 8-chloro-5-(3-(piperidin-1-yl)propoxy)-N-(4-(trifluoromethyl)pyridin-2-yl)quinolin-2-amine], in assay [1], the fold induction at 5 µM came to 7.97.

With `Fc1ccc(Nc2ccc3cccc(Cl)c3n2)nc1` [Compound 3], the fold induction at 5 µM in assay [1] was 48.5.

With `FC(F)(F)Oc1ccc(Oc2ccc3cccc(Cl)c3n2)cc1` [Compound 48, 8-chloro-2-(4-(trifluoromethoxy)phenoxy)quinoline], the fold induction at 5 µM in assay [1] stood at 24. Turning to `Nc1ccc(Cl)c2nc(Nc3ccc(OC(F)(F)F)c(Cl)c3)ccc12` [Compound 26], the fold induction at 5 µM in assay [1] was 6.13. Consider `FC(F)(F)c1ccnc(Oc2ccc3cccc(Cl)c3n2)c1` [Compound 46, 8-chloro-2-((4-(trifluoromethyl)pyridin-2-yl)oxy)quinoline], for which the fold induction at 5 µM in assay [1] is 6.23. As for `FC(F)(F)c1ccnc(Nc2cc(NCCN3CCOCC3)c3cccc(Cl)c3n2)c1` [Compound 11, 8-chloro-N^4-(2-morpholinoethyl)-N^2-(4-(trifluoromethyl)pyridin-2-yl)quinoline-2,4-diamine], in assay [1], the fold induction at 5 µM was 17.4.

As for `CN(c1cc(C(F)(F)F)ccn1)c1ccc2cccc(Cl)c2n1` [Compound 10, 8-chloro-N-methyl-N-(4-(trifluoromethyl)pyridin-2-yl)quinolin-2-amine], the fold induction at 5 µM in assay [1] came out at 21.1. The same measure, in the same setting: in the case of `CN(c1ccc(OC(F)(F)F)cc1)c1ccc2cccc(Cl)c2n1` [Compound 28, 8-chloro-N-methyl-N-(4-(trifluoromethoxy)phenyl)quinolin-2-amine] it was 22.2; in that of `Cc1cc2c(N)ccc(Cl)c2nc1Nc1ccc(OC(F)(F)F)c(Cl)c1` [Compound 27], 1.42.

Turning to `Cc1cn([C@H]2C[C@H](N=[N+]=[N-])[C@@H](CO)O2)c(=O)[nH]c1=O` [AZT, reference compound], in assay [1], the “effect on the overexpression” value is recorded as “none of the known antiretroviral (Maraviroc, Effavirenz, Darunavir or AZT) has any significant effect” and the “Fold-change compared to DMSO treated cells (Relative quantification) Mean” value is given as 0.90.
